One series deals with T1, BCRP (Homo sapiens, UniProt Q9UNQ0).
T1 sequence (Q9UNQ0 1-655): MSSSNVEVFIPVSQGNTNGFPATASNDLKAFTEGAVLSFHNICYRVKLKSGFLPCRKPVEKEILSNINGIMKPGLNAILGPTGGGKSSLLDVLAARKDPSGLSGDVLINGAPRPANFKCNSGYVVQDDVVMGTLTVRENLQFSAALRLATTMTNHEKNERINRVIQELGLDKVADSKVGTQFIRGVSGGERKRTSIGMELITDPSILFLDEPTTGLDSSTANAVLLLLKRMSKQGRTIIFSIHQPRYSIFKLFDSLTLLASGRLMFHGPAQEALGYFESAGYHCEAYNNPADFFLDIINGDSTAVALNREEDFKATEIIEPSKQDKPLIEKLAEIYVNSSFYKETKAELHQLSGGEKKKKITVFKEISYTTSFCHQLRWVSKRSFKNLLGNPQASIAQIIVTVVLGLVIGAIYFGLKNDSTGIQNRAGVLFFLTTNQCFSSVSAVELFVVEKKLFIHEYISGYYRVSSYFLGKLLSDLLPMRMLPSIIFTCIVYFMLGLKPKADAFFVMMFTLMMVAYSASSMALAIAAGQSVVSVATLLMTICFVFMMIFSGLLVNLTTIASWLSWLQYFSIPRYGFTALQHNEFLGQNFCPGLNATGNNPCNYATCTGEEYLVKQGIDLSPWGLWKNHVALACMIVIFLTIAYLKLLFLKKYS
The series is described as follows: Vesicular transport inhibition assay, BCRP.

Another series has as its target T2, OAT3 (Homo sapiens, UniProt Q8TCC7).
T2 sequence (Q8TCC7 1-542): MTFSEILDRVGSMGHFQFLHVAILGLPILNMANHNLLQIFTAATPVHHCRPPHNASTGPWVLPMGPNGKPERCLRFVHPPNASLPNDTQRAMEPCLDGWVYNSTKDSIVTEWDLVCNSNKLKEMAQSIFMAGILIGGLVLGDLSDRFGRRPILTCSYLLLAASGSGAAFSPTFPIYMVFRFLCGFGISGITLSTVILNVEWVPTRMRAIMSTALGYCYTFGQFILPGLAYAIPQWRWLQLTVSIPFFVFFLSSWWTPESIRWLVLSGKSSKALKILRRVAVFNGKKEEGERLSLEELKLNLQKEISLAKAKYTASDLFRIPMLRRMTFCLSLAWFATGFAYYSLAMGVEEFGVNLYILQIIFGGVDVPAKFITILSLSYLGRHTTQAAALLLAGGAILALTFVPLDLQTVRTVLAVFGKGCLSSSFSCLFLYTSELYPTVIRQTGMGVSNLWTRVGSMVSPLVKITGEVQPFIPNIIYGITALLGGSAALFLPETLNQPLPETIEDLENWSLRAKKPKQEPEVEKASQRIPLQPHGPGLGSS
The series is described as follows: Transporter inhibition assay, OAT3.

The next series addresses MRP2 (Homo sapiens, UniProt Q92887). Briefly: Transporter inhibition assay, MRP2.
Another series has as its target T3, NTCP (Homo sapiens, UniProt Q14973).
T3 sequence (Q14973 1-349): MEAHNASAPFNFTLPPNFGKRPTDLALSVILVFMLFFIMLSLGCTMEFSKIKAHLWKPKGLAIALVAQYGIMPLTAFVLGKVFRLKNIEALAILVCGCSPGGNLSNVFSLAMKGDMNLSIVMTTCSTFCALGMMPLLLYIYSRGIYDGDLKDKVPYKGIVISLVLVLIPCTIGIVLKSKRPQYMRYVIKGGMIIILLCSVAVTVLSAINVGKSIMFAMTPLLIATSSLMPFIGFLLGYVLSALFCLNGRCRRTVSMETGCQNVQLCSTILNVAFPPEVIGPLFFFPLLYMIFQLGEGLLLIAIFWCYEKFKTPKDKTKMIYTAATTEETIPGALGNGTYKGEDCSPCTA
Briefly: Transporter inhibition assay, NTCP. In kind it is cell-based. The following applies: alkaloids screened at 10 and 100 μM.

Another series concerns the target T4, OCT2 (Homo sapiens, UniProt O15244).
T4 sequence (O15244 1-555): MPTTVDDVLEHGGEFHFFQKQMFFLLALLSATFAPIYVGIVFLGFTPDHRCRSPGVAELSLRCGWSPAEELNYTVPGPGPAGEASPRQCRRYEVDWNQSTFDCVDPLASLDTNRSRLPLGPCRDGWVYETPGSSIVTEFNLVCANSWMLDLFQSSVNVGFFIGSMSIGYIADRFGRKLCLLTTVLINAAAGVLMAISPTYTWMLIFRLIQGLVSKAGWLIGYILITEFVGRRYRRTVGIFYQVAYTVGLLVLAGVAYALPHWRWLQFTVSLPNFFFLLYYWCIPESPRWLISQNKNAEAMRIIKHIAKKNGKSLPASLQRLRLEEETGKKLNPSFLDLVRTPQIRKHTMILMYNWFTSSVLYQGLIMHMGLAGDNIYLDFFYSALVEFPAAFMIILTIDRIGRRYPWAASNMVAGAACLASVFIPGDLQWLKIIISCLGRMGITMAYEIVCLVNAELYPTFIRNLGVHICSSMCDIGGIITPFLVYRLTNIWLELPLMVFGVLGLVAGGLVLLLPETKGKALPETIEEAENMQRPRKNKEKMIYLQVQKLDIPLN
The series is described as follows: Transporter inhibition assay, OCT2.

A further series addresses BSEP (Homo sapiens, UniProt O95342). Briefly: Transporter inhibition assay, BSEP.

The term IC50 denotes the concentration at which inhibition is half-maximal. As a reminder, the inhibition is how much of the control response was suppressed. The low end stands for little suppression, the high end for strong suppression.

Structures are written as SMILES. Where two headings read alike, the source gives them in different places.

Chain of BSEP (O95342 whole entry): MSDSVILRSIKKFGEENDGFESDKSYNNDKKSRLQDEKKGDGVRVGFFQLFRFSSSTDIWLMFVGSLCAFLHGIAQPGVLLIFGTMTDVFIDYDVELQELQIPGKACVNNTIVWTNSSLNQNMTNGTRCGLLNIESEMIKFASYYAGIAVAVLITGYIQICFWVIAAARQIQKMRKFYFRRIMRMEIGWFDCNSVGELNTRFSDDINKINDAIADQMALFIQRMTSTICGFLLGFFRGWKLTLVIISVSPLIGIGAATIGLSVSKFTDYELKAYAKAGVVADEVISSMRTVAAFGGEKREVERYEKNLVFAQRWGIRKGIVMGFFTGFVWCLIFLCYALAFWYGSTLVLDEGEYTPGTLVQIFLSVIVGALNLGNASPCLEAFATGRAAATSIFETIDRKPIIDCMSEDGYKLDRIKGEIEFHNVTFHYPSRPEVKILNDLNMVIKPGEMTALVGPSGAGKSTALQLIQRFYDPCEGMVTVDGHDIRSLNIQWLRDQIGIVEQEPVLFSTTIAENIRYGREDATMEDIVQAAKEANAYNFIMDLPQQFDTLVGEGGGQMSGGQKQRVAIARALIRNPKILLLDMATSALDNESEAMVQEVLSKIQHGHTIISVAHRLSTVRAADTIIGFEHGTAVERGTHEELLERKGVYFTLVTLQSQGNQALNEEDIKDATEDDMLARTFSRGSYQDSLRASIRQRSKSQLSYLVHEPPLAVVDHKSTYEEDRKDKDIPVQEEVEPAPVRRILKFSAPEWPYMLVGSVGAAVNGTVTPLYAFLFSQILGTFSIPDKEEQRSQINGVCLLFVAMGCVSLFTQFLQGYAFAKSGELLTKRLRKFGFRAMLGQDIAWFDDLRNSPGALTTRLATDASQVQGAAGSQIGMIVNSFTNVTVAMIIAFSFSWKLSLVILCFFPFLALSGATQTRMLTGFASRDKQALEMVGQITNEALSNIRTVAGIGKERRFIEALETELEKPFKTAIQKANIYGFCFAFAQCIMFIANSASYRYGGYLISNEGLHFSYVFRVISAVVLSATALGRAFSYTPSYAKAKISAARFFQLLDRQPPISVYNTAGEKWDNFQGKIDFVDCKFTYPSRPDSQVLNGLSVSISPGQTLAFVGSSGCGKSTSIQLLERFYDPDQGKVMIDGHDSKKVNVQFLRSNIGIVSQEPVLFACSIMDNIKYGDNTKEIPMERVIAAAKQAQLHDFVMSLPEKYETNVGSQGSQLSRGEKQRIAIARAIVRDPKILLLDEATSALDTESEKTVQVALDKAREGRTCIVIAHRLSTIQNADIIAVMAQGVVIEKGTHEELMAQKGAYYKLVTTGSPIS
Chain of MRP2 (Q92887 whole entry): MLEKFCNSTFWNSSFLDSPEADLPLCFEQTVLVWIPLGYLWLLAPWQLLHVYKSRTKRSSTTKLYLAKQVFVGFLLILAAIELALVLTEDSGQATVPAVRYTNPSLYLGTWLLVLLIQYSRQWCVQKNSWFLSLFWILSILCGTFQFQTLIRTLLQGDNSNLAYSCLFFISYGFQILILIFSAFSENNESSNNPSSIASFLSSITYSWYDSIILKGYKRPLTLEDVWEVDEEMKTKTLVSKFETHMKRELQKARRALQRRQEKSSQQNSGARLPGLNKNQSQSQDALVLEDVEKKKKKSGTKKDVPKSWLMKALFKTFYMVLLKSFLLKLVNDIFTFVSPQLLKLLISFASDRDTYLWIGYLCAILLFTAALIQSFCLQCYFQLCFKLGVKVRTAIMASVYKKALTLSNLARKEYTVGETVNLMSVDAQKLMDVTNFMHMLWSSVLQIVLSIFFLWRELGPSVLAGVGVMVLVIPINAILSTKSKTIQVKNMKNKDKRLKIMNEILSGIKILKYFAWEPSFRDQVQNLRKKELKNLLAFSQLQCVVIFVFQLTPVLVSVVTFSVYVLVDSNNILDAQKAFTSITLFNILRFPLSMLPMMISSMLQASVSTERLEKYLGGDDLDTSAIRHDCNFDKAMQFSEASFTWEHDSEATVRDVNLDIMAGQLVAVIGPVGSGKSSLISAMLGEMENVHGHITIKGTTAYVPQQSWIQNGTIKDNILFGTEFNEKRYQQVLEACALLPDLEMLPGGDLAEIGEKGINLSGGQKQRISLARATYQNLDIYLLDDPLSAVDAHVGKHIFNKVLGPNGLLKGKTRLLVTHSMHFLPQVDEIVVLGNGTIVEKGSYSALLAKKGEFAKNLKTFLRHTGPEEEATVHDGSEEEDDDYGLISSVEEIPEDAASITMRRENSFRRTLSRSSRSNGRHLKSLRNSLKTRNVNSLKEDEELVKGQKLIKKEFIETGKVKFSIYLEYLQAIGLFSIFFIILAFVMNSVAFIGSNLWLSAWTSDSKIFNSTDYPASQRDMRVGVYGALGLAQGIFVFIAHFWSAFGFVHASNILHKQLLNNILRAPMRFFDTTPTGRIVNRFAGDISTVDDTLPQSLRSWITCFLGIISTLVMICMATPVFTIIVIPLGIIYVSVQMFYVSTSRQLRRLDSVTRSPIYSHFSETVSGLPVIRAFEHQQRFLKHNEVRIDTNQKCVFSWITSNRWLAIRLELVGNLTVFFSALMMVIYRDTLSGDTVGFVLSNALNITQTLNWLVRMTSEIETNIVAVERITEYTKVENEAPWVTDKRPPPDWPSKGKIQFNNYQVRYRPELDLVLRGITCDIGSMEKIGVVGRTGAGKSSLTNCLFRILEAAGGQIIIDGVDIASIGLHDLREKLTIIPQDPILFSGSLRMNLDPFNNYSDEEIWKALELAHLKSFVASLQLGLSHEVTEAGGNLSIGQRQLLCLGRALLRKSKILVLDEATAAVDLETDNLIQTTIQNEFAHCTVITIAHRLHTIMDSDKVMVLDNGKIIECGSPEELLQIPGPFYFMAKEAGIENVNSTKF

For the compound `COc1ccc2cc3[n+](cc2c1OC)CCc1cc2c(cc1-3)OCO2` [Berberine, berberine chloride], the values for the IC50 against BCRP, at OAT3 and on OCT2 were 180 µM, 79 µM and 45 µM, respectively. Besides, the inhibition at 100 μM against MRP2 and against BSEP was < 20% each time. The “inhibition at the highest concentration tested” value against NTCP is “-- (inhibition not observed)”.
Take `CN1CCc2cc3c(cc2C1O)OCO3` (stereo not drawn) [Hydrastinine, hydrastinine chloride monohydrate]: the inhibition at 100 μM against BCRP, against OAT3 (cell line (HEK293 or MDCKII) stably expressing OAT3), against MRP2 and on BSEP was < 20% each time. Further, the “inhibition at the highest concentration tested” value on NTCP was “-- (inhibition not observed)”. On OCT2, this compound gave a concentration for half-maximal inhibition (IC50) of 95 µM.
On to `COc1ccc2c(c1OC)C(=O)O[C@@H]2[C@H]1c2cc3c(cc2CCN1C)OCO3` [(−)-β-Hydrastine, (1R,9S)-(−)-β-Hydrastine], for which the IC50 on BCRP (BCRP, isolated alkaloids, mean [95% CI], three technical replicates) is 86.2 µM; against OAT3 (OAT3, isolated alkaloids, mean [95% CI], three technical replicates) it was 203 µM; against OCT2 (OCT2, isolated alkaloids, mean [95% CI], three technical replicates) it was 90 µM. For the same compound, the “inhibition at the highest concentration tested” value is given as “-- (inhibition not observed)” against MRP2 (MRP2, alkaloids screened at 10 and 100 μM); “-- (inhibition not observed)” at NTCP; “-- (inhibition not observed)” against BSEP (BSEP, alkaloids screened at 10 and 100 μM).

The values above are taken from article PMC8058163 (Clinical pharmacology and therapeutics, 2020).
